Laboratory results reported in publication PMC10025185, “A continuous in silico learning strategy to identify safety liabilities in compounds used in the leather and textile industry” (Archives of Toxicology, 2023).
Like-named read-outs stand apart in the source and are kept apart here.

Assays:
[1] = logKow as a measure of bioaccumulation, extracted from public databases; type: physicochemical; details: yes/no by logKow, REACH cut off 4,5
[2] = PBT assessment (persistence, bioaccumulation and FET toxicity combined, logical AND); details: persistent, bioaccumulative and toxic all positive
Protocol: (§1) Acute toxicity was determined using the OECD236 fish embryo acute toxicity (FET) test (OECD guidelines). To assess the PBT potentiality of the analysed compounds, persistence and the logKow as a measure of bioaccumulation were extracted from public databases (https://comptox.epa.gov/dashboard, and https://echa.europa.eu/es/information-on-chemicals).
Ecotoxicity of selected compounds was screened with the FET assay to determine acute toxicity and using available predictions of persistence and bioaccumulation.

[3] = design: method as in earlier work; details: experimental value; ref https://comptox.epa.gov/dashboard, https://echa.europa.eu/es/information-on-chemicals; cited from earlier work
[4] = tested on: androgen and oestrogen receptors; experiment: ED assays of androgen and oestrogen receptors (overall experimental ED result); type: cell-based
Protocol: The transcriptional activation of androgen receptor (AR) assays was carried out by adapting the OECD protocol 458 (OECD [2020]).
MDA-MB-453 cells (8000 cells/well) expressing an AR luciferase reporter were seeded into 384 white plates (Greiner 781098) in culture medium (DMEM (ATCC), 10% foetal bovine serum (Sigma Aldrich), 1% penicillin–streptomycin (Sigma-Aldrich), 75 µg/ml geneticin (Gibco) and incubated overnight at 37 °C 5% CO2 and 95% humidity. After this time, the cell culture medium was discarded and replaced by assay medium (DMEM (ATCC), 0.1% foetal bovine serum (Sigma-Aldrich), and 1% penicillin–streptomycin (Sigma Aldrich)).
For studying a putative agonist effect, compounds were added to the assay plate using an Echo 550 acoustic liquid handler and incubated overnight at 37 °C 5% CO2 and 95% humidity. For studying the putative antagonist effect, compounds were added using an Echo 550 acoustic liquid handler and incubated for 15 min at 37 °C 5% CO2 and 95% humidity. Then, 1 nM 5α-dihydrotestosterone (DHT) was added, and the cell plate was incubated overnight at 37 °C, 5% CO2, and 95% humidity. After compound incubation, the cell medium was removed, 5 µl of lysis buffer 1X (Promega) was added, and the cell plate was incubated with agitation 15 min at room temperature. A freeze–thaw cycle of 10 min at −80 °C and room temperature was performed. Then 25 µl of luciferase assay reagent (Promega) was added and luminescence was determined on an EnSpire plate reader (Perkin Elmer). Data was fitted to a four-parameter sigmoidal model with Prism 5.1 (Graphpad, Inc).
The transcriptional activation of oestrogen receptor (ER) assay was carried out by adapting the OECD protocol 455 (OECD [2021]) and the method of Li et al. ([2013]).
ER luciferase reporter T47D cells (5000 cells/well) were seeded into 384 white plates (Greiner 781098) in culture medium (RPMI 1640 (Thermo Fisher Scientific 52400), 10% foetal bovine serum (Sigma Aldrich F9665), 1% penicillin–streptomycin (Sigma-Aldrich P0781), 75 µg/ml Geneticin (Gibco 10131)) and incubated overnight at 37 °C and 5% CO2. The following day, the cell culture medium was discarded and replaced by assay medium (RPMI 1640 (Thermo Fisher Scientific 52,400), 0.1% foetal bovine serum (Sigma Aldrich F9665), and 1% penicillin–streptomycin (Sigma Aldrich P0781).
The assay was performed as stated before for the AR assay using 17β-estradiol as agonist instead of DHT.
ED was assessed by transactivation in vitro assays to identify agonists and antagonists of the androgen and oestrogen receptors.
Also, the experimental group analysed the endocrine-disrupting activity for the CMR compounds.

[5] = tested on: thyroid system; details: cited from earlier work
[6] = tested on: zebrafish embryos; details: FET assay
Protocol: as §1

Row | Structure (SMILES) | Bioaccumulation [1] | Bioaccumulation (logKow) [3] | Experimental result ([4]; endocrine disruptor yes/no) | Potential PBT [2] | also measured
1 | Clc1cc(Cl)c(Cl)c(Cl)c1Cl [1,2,3,4,5-Pentachlorobenzene] | Yes | 5.17 | – | – | Potential PBT ([2]; listed as Pentachlorobenzene): YES; Potential PBT ([2]; listed as pentachlorobenzene): potential PBT compounds
2 | Clc1cc(Cl)c(Cl)c(Cl)c1 [1,2,3,5-Tetrachlorobenzene] | Yes | 4.61 | No | YES | Potential PBT ([2]; listed as 1,2,3,5-tetrachlorobenzene): potential PBT compounds; endocrine-disrupting activity ([5]; ref Chu et al. [1983], den Besten et al. [1991]): thyroid system affection
3 | Oc1cc(Cl)cc(Cl)c1Cl [2,3,5-Trichlorophenol] | No | 3.84 | – | not a potential PBT compound | Experimental result [4]: Yes
4 | ClC1C(Cl)C(Cl)C(Cl)C(Cl)C1Cl (stereo not drawn) [(1α,2α,3α,4β,5α,6β)-1,2,3,4,5,6-Hexachlorocyclohexane] | No | 3.95 | – | – | acute toxicity [6]: highly toxic
5 | O=C(O)C(F)(F)C(F)(F)C(F)(F)C(F)(F)F [Nonafluorovaleric acid] | – | – | No | – | endocrine-disrupting activity ([5]; ref Coperchini et al. [2021], Croce et al. [2019]): thyroid system affection
